Entries after “also recorded” stand apart in the source; their conditions may differ. Where a SMILES comes first, the peptide text is derived from it. [ ]: non-standard residue; d: D form.
What was measured:
SK-N-BE(2)c cells = experiment: Cell cycle analysis by PI flow cytometry, SK-N-BE(2)c; assay type: cell-based, human
Method: (§1) Cells were seeded at 1×10^5/ml. Once attached, cells were treated with or without R9-caPep for 48 hours. Cells were fixed in 60% ethanol and stained with propidium iodide (PI). The cellular PI fluorescence intensity was determined by flow cytometry. The flow cytometry data were analyzed by the FlowJo program to model various cell populations.

[1] = system: PCNA and LIGI co-localization in SK-N-AS NB cells; experiment: PCNA/LIGI co-localization, immunofluorescence; assay type: cell-based, human; details: synchronized, 30 µM peptide 6 h after mimosine release
Method: (§2) Cells were seeded at 1×10^5/ml onto a chamber slide and were allowed to attach overnight. To analyze the interaction of PCNA with FEN1, LIGI, or Pol ä, we first synchronize cells at the G1/S boundary. The synchronization is achieved by starving cells in medium containing 0.25% FBS for 24 h. Cells were further cultured in the complete medium containing 400 µM of mimosine for 24 h. To release cells into S phase, cells were washed and incubated in mimosine-free medium containing 30 µM R9-caPep or R9-srbPep for 6 h. We pre-determined that the majority of cells were in the S-phase 6 h after mimosine was removed (data not shown). Cells were fixed in ice-cold methanol:acetone (50%:50%) for 10 min or in 4% paraformaldehyde for 20 min at room temperature. Cells were incubated with a goat polyclonal anti-PCNA antibody (Santa Cruz) and a mouse monoclonal anti-FEN1 antibody (Santa Cruz), a mouse anti-POLD3 antibody (Sigma, St. Louis, MO), or a mouse anti-LIGI antibody (Abcam, Cambridge, MA) for 1 h at room temperature. After being washed with PBS, cells were incubated with Alexa Fluor 488 conjugated anti-mouse IgG and Alexa Fluor 555 conjugated anti-goat IgG antibodies (Invitrogen, Grand Island, NY) for 1 h. Cells were mounted in Vectashield with DAPI (Vector Labs, Burlingame, CA) and visualized by a confocal microscope.

[2] = system: Rad51 foci in SK-N-BE(2)c cells; experiment: Rad51 foci immunofluorescence after γ-irradiation; assay type: cell-based, human; details: 2 h peptide pretreatment, 5 Gy
Method: To study DNA damage and repair, attached cells were pretreated with the peptides for 2 h and were then ã-irradiated (5 Gy). After irradiation, cells were cultured in the presence of the peptides for the indicated time. For analyzing ãH2A.X foci formation, cells were fixed in a solution of methanol and acetone (70%:30% v/v) for 15 min at −20°C. The slides were air-dried for storage and rehydrated in PBS prior to immunostaining. Cells were stained by a mouse monoclonal antibody specific to ãH2A.X (Millipore, Billerica, MA) followed by an Alexa Fluor 488 conjugated anti-mouse IgG antibody. For analyzing Rad51 foci formation, cells were fixed in PBS buffered 4% paraformaldehyde at room temperature for 15 min. After being washed twice by PBS, cells were permeabilized in PBS containing 0.5% triton for 15 min on ice. The fixed and permeabilized cells were stained with a rabbit polyclonal antibody raised against the human Rad51 (Santa Cruz) followed by an Alexa Fluor 488 conjugated anti-rabbit IgG antibody. Stained cells were visualized and imaged by a confocal microscope.

[3] = system: SSA-mediated DSB repair, U2OS-derived SA-GFP cells; experiment: DSB repair reporter assay, SSA (SA-GFP); assay type: cell-based; details: 30 µM, GFP-positive cells 3 d after I-SceI transfection, normalized to R9-srbPep, triplicates
Method: (§3) The plasmid pCBASce expresses the rare cutting I-SceI meganuclease. The U2OS-derived cell lines, DR-GFP, EJ5-GFP, and SA-GFP contain a stably transfected reporter gene for DSB repair mediated by HR, end joining (EJ), and single-strand annealing (SSA), respectively. These cell lines were cultured in DMEM medium with 10% FBS at 37°C in the presence of 5% CO2.
(§4) DR-GFP, EJ5-GFP, and SA-GFP cell lines were seeded at 2.5×10^4 cells/cm^2 in a 12-well plate. Once attached overnight, cells were transfected with 1.2 µg of the pCBASce I-SceI expression plasmid mixed with 3.6 µl of Lipofectamine 2000 (Invitrogen) in 200 µl of Optimem media (Invitrogen). After incubation for 3 h, the media containing transfection complexes was aspirated and replaced with fresh media containing 30 µM of the peptides. The HR, EJ, and SSA-mediated DSB repair, indicated by the restoration of a functional GFP gene in the respective cell lines, were quantified by measuring the relative abundance of GFP-positive cells by flow cytometry 3 d after transfection.

[4] = system: EJ-mediated DSB repair, U2OS-derived EJ5-GFP cells; experiment: DSB repair reporter assay, EJ (EJ5-GFP); assay type: cell-based; details: 30 µM, GFP-positive cells 3 d after I-SceI transfection, normalized to R9-srbPep, triplicates
Method: as §3, §4

[5] = system: PCNA and FEN1 co-localization in SK-N-AS NB cells; experiment: PCNA/FEN1 co-localization, immunofluorescence; assay type: cell-based, human; details: synchronized, 30 µM peptide 6 h after mimosine release
Method: as §2

[6] = system: non-malignant 7SM0032 cells; experiment: Cell cycle analysis by PI flow cytometry, 7SM0032; assay type: cell-based, human; details: 7SM0032, same treatment (40 µM, 48 h), vs NB cells
Method: as §1

CC[C@H](C)[C@H](NC(=O)CNC(=O)[C@H](CC(C)C)NC(=O)[C@H](CS)NC(=O)[C@H](CS)NC(=O)[C@@H](CCCNC(=N)N)NC(=O)[C@@H](CCCNC(=N)N)NC(=O)[C@@H](CCCNC(=N)N)NC(=O)[C@@H](CCCNC(=N)N)NC(=O)[C@@H](CCCNC(=N)N)NC(=O)[C@@H](CCCNC(=N)N)NC(=O)[C@@H](CCCNC(=N)N)NC(=O)[C@@H](CCCNC(=N)N)NC(=O)[C@H](N)CCCNC(=N)N)C(=O)N1CCC[C@H]1C(=O)N[C@@H](CCC(=O)O)C(=O)N[C@@H](CCC(N)=O)C(=O)N[C@@H](CCC(=O)O)C(=O)N[C@@H](Cc1ccc(O)cc1)C(=O)O [R9-caPep] (H-[dR][dR][dR][dR][dR][dR][dR][dR][dR]CCLGIPEQEY-OH; N-terminus and C-terminus assumed)
cell cycle arrest (SK-N-BE(2)c cells; NB cells (SK-N-BE(2)c), 48 h, 20 or 40 µM): caused S-phase arrest in NB cells
apoptosis: sub-G1 cell population (SK-N-BE(2)c cells; SK-N-BE(2)c, 40 µM, 48 h): rise of a sub-G1 cell population
relative abundance of cells in S-phase, longer treatment (SK-N-BE(2)c cells; treatment longer than 6 h (Fig. 3c, 48 h)): increased the relative abundance of cells in S-phase
LIGI co-localization with PCNA foci [1]: largely blocked
number of Rad51-positive cells at 4 h ([2]; 4 h after irradiation): reduced the number of Rad51-positive cells at 4 h after ã-irradiation
Rad51 background staining at 48 h ([2]; 48 h after irradiation): strong and diffused background staining of Rad51
Rad51 foci at 48 h ([2]; 48 h after irradiation): Rad51 foci remain visible
SSA-mediated DNA repair [3]: only small effects on EJ or SSA; also recorded: slightly enhances DNA repair through SSA
EJ-mediated DNA repair [4]: only small effects on EJ or SSA; also recorded: little effect on the EJ pathway
FEN1 co-localization with PCNA foci [5]: didn't appear to overlap the PCNA foci
effect on cell cycle progression in non-malignant cells [6]: significantly less effect on cell cycle progression and cell survival

— article PMC3984256, “A PCNA-Derived Cell Permeable Peptide Selectively Inhibits Neuroblastoma Cell Growth” (PLoS ONE, 2014)
